Results reported in article PMC6161010, “A Simple and Sensitive Liquid Chromatography with Tandem Mass Spectrometric Method for the Simultaneous Determination of Anthraquinone Glycosides and Their Aglycones in Rat Plasma: Application to a Pharmacokinetic Study of Rumex acetosa Extract” (Pharmaceutics, 2018).
Like-named read-outs stand apart in the source and are kept apart here.

What was measured:
[1] = Stability of analytes in stock solution; type: physicochemical; details: stock solutions stored at room temperature for 4 h, n = 3
Procedure: The primary stock solutions of E, EG, C, CG, P, PG, and IS were prepared in dimethyl sulfoxide at a concentration of 1 mg/mL and stored at −80 °C. The mixture stock solutions to obtain the standard solutions were serially diluted in methanol. The IS stock solution of 5 ng/mL was prepared in methanol. The calibration standards were prepared by spiking 10 μL of above standard solutions into 90 μL of blank rat plasma to yield concentration ranges of 1–300 ng/mL for E, 20–300 ng/mL for P and C, 1–150 ng/mL for EG, 10–150 ng/mL for CG and PG. Twenty microliters of aliquots were prepared and stored at −80 °C until analysis.
(§1) The stability of the analytes in rat plasma was evaluated by analyzing triplicates of three QC levels at room temperature for 4 h (short-term stability), −80 °C for one month (long-term stability), three freeze-thaw cycles from −80 °C to room temperature (freeze and thaw stability), and 4 °C for 24 h (processed sample stability). The stability of analytes in stock solution was also evaluated. The peak areas obtained from freshly prepared stock solutions were compared with stock solutions stored for 4 h at room temperature.

[2] = Pharmacokinetic study after oral administration of R. acetosa extract to rats; type: in vivo, Sprague‒Dawley rats; details: oral R. acetosa extract 2 g/kg; for MRT / half-life / Tmax / first time detected in plasma of every rat (first sampling time) / time from which plasma concentrations were below the LLOQ / time until which the analyte could be detected in plasma / plasma concentrations (in words): rat; for MRT / half-life / Cmax / AUC(0-t): n = 3, mean ± SD; for Cmax / AUC(0-t): rat plasma; for AUC(0-t): last measured time points for C, E, CG, PG 6, 24, 8, 6 h
Procedure: The analysis was performed on an Agilent 1260 series (Agilent Technologies, Waldbronn, Germany) HPLC system. Chromatographic separation of the samples was carried out on a Kinetex Biphenyl column (100 × 3.0 mm, 2.6 μm, 110 Å, Phenomenex, Torrance, CA, USA). The mobile phase consisted of 2 mM ammonium formate (pH 6) in water (A) and 2 mM ammonium formate (pH 6) in methanol (B). The gradient program was used at a flow rate of 0.3 mL/min while maintaining the column temperature at 40 °C. The mobile phase initial composition of 25% B was maintained for 2 min. It was then increased linearly from 25% to 95% B for 0.5 min and held for 7 min. The gradient was then changed back to the initial condition for 0.5 min and kept at the initial condition for 3 min. The total analysis time was 13 min for each sample. The injection volume was 15 μL.
The mass spectrometric detection was performed on an Agilent 6460 triple-quadruple mass spectrometer (Agilent Technologies, Singapore) with an electrospray ionization source. It was operated in the negative ion detection mode because of its higher sensitivity than that in the positive ionization mode on multiple reaction monitoring (MRM). The data were acquired and processed using Mass Hunter Workstation B.06.00 software (Agilent Technologies, Singapore). The source parameters were also optimized as follows: a drying gas flow and temperature at 6 L/min and 350 °C were used, respectively; the sheath gas flow and temperature were maintained at 12 L/min and 350 °C, respectively; the nebulizing gas (N2) pressure was set at 25 psi; and the capillary and nozzle voltages were set at 3500 V and 500 V, respectively.
To 20 μL aliquot of the rat plasma samples, 60 μL of 5 ng/mL IS in methanol was added. The mixture was vortexed for 30 s and kept at 4 °C for 30 min. The mixture was centrifuged at 10,000× g for 10 min. The supernatant was transferred to an HPLC vial, and 15 μL of the processed sample was injected onto the LC-MS/MS system.
Male Sprague‒Dawley rats (8-week-old, weighing 250 ± 10 g) were obtained from Koatech (Pyeongtaek, Korea). They were housed and acclimated in the Animal Laboratory, Gyeongsang National University, under controlled temperature and humidity and regular 12 h light cycle, freely accessible to food and water for 7 days before the experiment. The rats were cannulated into the carotid artery and allowed to recover for one day. Before the pharmacokinetic study, all rats were fasted for 12 h with free access to water. R. acetosa extract suspended in a solution (ethanol:polysorbate 80:water = 1:2:7, v/v/v) was orally administered to the three rats at a dose of 2 g/kg. The calculated doses of compounds based on the contents in the extract were 18.8, 25.8, 13.6, 15.4, 3.4, and 8.2 mg/kg for E, EG, C, CG, P, and PG, respectively. Blood samples (100 µL) were collected via the cannulated carotid vessel at 0, 15, 30, 45 min, 1, 2, 3, 4, 6, 8, 12, and 24 h after oral administration. To collect plasma, the blood samples were immediately centrifuged at 10,000× g for 5 min. All plasma samples were stored at −80 °C until analysis. All experimental procedures of the animal study were approved (GNU-130618-R0038) by the Animal Care and Use Committee of Gyeongsang National University, Korea.

[3] = Stability of the analytes in rat plasma (method validation); type: in vitro ADME; details: n = 3; for Processed Sample Stability, Accuracy: processed rat plasma sample, 4 °C 24 h; for Short Term Stability, Accuracy / Freeze and Thaw Stability, Accuracy / Long Term Stability, Accuracy: rat plasma; for Short Term Stability, Accuracy: room temperature 4 h; for Freeze and Thaw Stability, Accuracy: three freeze-thaw cycles −80 °C to room temperature; for Long Term Stability, Accuracy: −80 °C one month
Procedure: as §1

[4] = design: method as in PMID 19921750; details: after administration of emodin 40 mg/kg; rapidly and extensively metabolized to its glucuronide; cited from earlier work
[5] = design: method as in doi:10.1039/C5RA27273D; details: hyperlipidemic hamsters after administration of rhubarb; cited from earlier work
[6] = male, Sprague-Dawley, plasma, read-out: Median Tmax (converted)
[7] = high QC (P, E, C 300; PG, EG, CG 150 ng/mL)
[8] = low QC (P, C 60; E, EG 3; PG, CG 30 ng/mL)
[9] = middle QC (P, E, C 150; PG, EG, CG 75 ng/mL)
[10] = male, Sprague-Dawley, plasma, n = 3, median (range), read-out: Tmax

| Structure (SMILES) | mean concentration in stock solution compared with fresh stock solutions [1] | MRT ([2]; male, Sprague-Dawley, plasma) | half-life ([2]; male, Sprague-Dawley, plasma) | Tmax [2, 6] | Cmax ([2]; male, Sprague-Dawley) | AUC(0-t) ([2]; male, Sprague-Dawley) | first time detected in plasma of every rat (first sampling time) [2] | time from which plasma concentrations were below the LLOQ [2] | Processed Sample Stability, Accuracy [3, 7] | Processed Sample Stability, Accuracy [3, 8] | Processed Sample Stability, Accuracy [3, 9] | Short Term Stability, Accuracy [3, 7] | Short Term Stability, Accuracy [3, 8] | Short Term Stability, Accuracy [3, 9] | Freeze and Thaw Stability, Accuracy [3, 7] | Freeze and Thaw Stability, Accuracy [3, 8] | Freeze and Thaw Stability, Accuracy [3, 9] | Long Term Stability, Accuracy [3, 7] | Long Term Stability, Accuracy [3, 8] | Long Term Stability, Accuracy [3, 9] | also measured |
| --- | --- | --- | --- | --- | --- | --- | --- | --- | --- | --- | --- | --- | --- | --- | --- | --- | --- | --- | --- | --- | --- |
| Cc1cc(O)c2c(c1)C(=O)c1cccc(O)c1C2=O [C, chrysophanol] | 95.9% | 2.4 ± 0.2 h | 3.9 ± 0.6 h | 0.25 h | 156 ± 86 ng/mL | 266 ± 70.9 ng·h/mL | 15 min | 6 h | 102.3% | 101.5% | 103.7% | 101.2% | 103.5% | 98.6% | 92.4% | 89.7% | 91.8% | 102.6% | 104.3% | 97.9% | Tmax ([2]; n = 3, median (range)): 0.25 (0.25–0.5) h |
| Cc1cc(O)c2c(c1)C(=O)c1cccc(O[C@@H]3O[C@H](CO)[C@@H](O)[C@H](O)[C@H]3O)c1C2=O [CG, chrysophanol-8-O-β-D-glucoside] | 101.7% | 2.4 ± 0.08 h | 4.8 ± 0.5 h | – | 28.7 ± 4.7 ng/mL | 158 ± 12.3 ng·h/mL | 15 min | – | 96.7% | 91.1% | 100.2% | 101.8% | 97.6% | 96.9% | 97.0% | 98.3% | 101.0% | 101.5% | 97.5% | 100.6% | Tmax [2, 10]: 2 h; time until which the analyte could be detected in plasma [2]: 8 h |
| Cc1cc(O)c2c(c1)C(=O)c1cc(O)cc(O)c1C2=O [E, emodin] | 94.8% | 7.7 ± 3 h | – | 0.25 h | 124 ± 41.7 ng/mL | 1160 ± 336 ng·h/mL | 15 min | – | 104.6% | 108.2% | 108.0% | 101.8% | 103.2% | 100.7% | 102.0% | 107.5% | 104.5% | 107.7% | 106.8% | 107.8% | detection of the parent form (in words) [4]: almost undetectable; time until which the analyte could be detected [5]: 36 h; time until which the analyte could be detected in plasma [2]: 24 h; Tmax ([2]; n = 3, median (range)): 0.25 (0.25–0.75) h |
| Cc1cc(O)c2c(c1)C(=O)c1cc(O)cc(O[C@@H]3O[C@H](CO)[C@@H](O)[C@H](O)[C@H]3O)c1C2=O [EG, emodin-8-O-β-D-glucoside] | 100.4% | – | – | – | – | – | – | – | 100.3% | 91.5% | 107.9% | 98.9% | 99.8% | 108.5% | 100.9% | 100.4% | 112.3% | 102.8% | 102.9% | 107.9% | detection in plasma (in words) [5]: not detected; plasma concentrations (in words) [2]: not high enough to determine the pharmacokinetic parameters |
| COc1cc(O)c2c(c1)C(=O)c1cc(C)cc(O)c1C2=O [P, physcion] | 99.2% | – | – | – | – | – | – | – | 102.7% | 102.2% | 101.6% | 103.8% | 104.9% | 98.9% | 104.2% | 103.6% | 103.9% | 98.0% | 107.3% | 100.1% | plasma concentrations (in words) [2]: not high enough to determine the pharmacokinetic parameters |
| COc1cc(O[C@@H]2O[C@H](CO)[C@@H](O)[C@H](O)[C@H]2O)c2c(c1)C(=O)c1cc(C)cc(O)c1C2=O [PG, physcion-8-O-β-D-glucoside] | 102.4% | 2.7 ± 0.6 h | 6.2 ± 3.9 h | – | 20.5 ± 1.4 ng/mL | 82.8 ± 13.8 ng·h/mL | 15 min | 6 h | 96.8% | 98.8% | 92.7% | 96.7% | 98.9% | 91.8% | 93.6% | 101.5% | 94.3% | 97.1% | 97.7% | 98.5% | Tmax [2, 10]: 0.75 h |
